Structures can show the parent of a compound that is named as a salt. Where two headings read alike, the source gives them in different places.
Experiments:
5-HT2A receptor [1] = target: T1, 5-HT2A receptor (Homo sapiens (Human), UniProt P28223); test: FLIPR Ca2+ flux functional assay, agonist activity at 5-HT2A; assay type: cell-based
Method: (§1) Functional Assays at 5-HT2A, 5-HT2B, and 5-HT1A Receptors. Agonist activity at 5-HT2A, 5-HT2B, and 5-HTIA receptors was determined using a FLIPR Ca^2− flux assay at WuXi AppTec (Hong Kong) Limited according to their standard protocols. Briefly, stably transfected cells expressing the receptor of interest (HEK293 for 5-HT2A and 5-HT2B; CHO cells for 5-HT1A) were grown and plated in a 384-well plate and incubated at 37° C. and 5% CO2 overnight. A solution of 250 mM probenecid in 1 mL FLIPR assay buffer was prepared fresh. This was combined with a fluorescent dye (Fluo-4 Direct™) to make a final assay concentration of 2.5 mM. Compounds were diluted 1:3.16 for 10 points and 750 nL was added to a 384-well compound plate using ECHO along with 30 μL of assay buffer. The fluorescent dye was then added to the assay plate along with assay buffer to a final volume of 40 μL. The cell plate was incubated for 50 min at 37° C.and 5% CO2 and placed into the FLIPR Tetra along with the compound plate. 10 μL of references and compounds were then transferred from the compound plate into the cell plate and the fluorescent signal was read.

5-HT2B receptor = 5-HT2B receptor (Homo sapiens (Human), UniProt P41595); test: FLIPR Ca2+ flux functional assay, agonist activity at 5-HT2B; assay type: cell-based; conditions: for Emax: HEK293 stably transfected cells, Ca2+ flux
Method: as §1

5-HT1A receptor = 5-HT1A receptor (Homo sapiens (Human), UniProt P08908); test: FLIPR Ca2+ flux functional assay, agonist activity at 5-HT1A; assay type: cell-based; conditions: for Emax: read-out: 5-HT1A Emax
Method: as §1

5-HT2A receptor [2] = target: T1, 5-HT2A receptor; test: 5-HT2A receptor radioligand binding with [3H]ketanserin; conditions: HEK293 stable cell line, 1 nM [3H]ketanserin, 1 h, 25° C.
rat synaptosomes = test: Synaptosome 5-HT release assay; assay type: biochemical; conditions: for EC50: rat synaptosomes preloaded with [3H]5-HT, 10 mins
Method: Synaptosome 5-HT Release Assay. Synaptosome release assays were conducted according to modifications of previously described procedures (Partilla et al. (2016). Interrogating the Activity of Ligands at Monoamine Transporters in Rat Brain Synaptosomes. In Neurotransmitter Transporters (pp. 41-52). Springer.). Briefly, synaptosomes were prepared from rat brains. Male
Sprague-Dawley rats were rendered unconscious with CO2 and their brains were immediately removed. The cerebella were discarded and the whole brains (minus striatum) were placed in ice-cold 0.32 M sucrose (10 mL per brain) and gently homogenized by hand. The homogenate of each brain was centrifuged at 1,000×g at 4° C.for 10 mins and the resulting supernatant was diluted with ice-cold 0.32 M sucrose to a total volume of 10 mL to provide the synaptosome solution. […] The incubations were allowed to reach equilibrium for 2 h at 25° C. For the release reactions, 425 μL of preloaded synaptosomes were added to test tubes containing 75 μL of test drugs diluted in KPB containing 1 mg/mL BSA. After 10 mins, the release reaction was stopped using a cell harvester by rapid vacuum filtration over GF/B filter paper presoaked in wash buffer (10 mM Tris-HCl, pH 7.4, 150 mM NaCl) and the filters were washed with additional wash buffer. Filters were dried for 1 h at 60° C.and retained radioactivity was quantified using a MicroBeta 2 liquid scintillation counter. The amount of retained radioactivity was inversely proportional to the extent of release.

[3] = tested on: rat forced swim test (FST); test: Forced swim test in rats; assay type: in vivo; conditions: s.c., 23.5-h pre-treatment time
Method: Compound 1 is tested for antidepressant-like activity in the rat forced swim test (FST). The compound induces antidepressant-like effects with a 23.5-h pre-treatment time.
Animals. Male Sprague Dawley rats, aged 9-10 weeks, are used in this experiment. Animals are housed in groups of 2 under controlled temperature (22+3°C.) and relative humidity (30-70%) conditions, with 12-hour light/dark cycles, and with ad libitum food and water. This study is carried out in strict accordance with the requirements of the Committee for the Purpose of Control and Supervision of Experiments on Animals (CPCSEA), India. All efforts are made to minimize suffering.
Drugs and Drug Administration. Test compound, saline vehicle, and the positive control desipramine are administered subcutaneously (s.c.), with doses calculated based on the free base. Normal saline is used as the vehicle (or acidified saline in the case of free bases). All compounds are administered at a volume of 5 mL/kg. Test compound and vehicle are administered 0.5 h after the start of the training swim (Swim 1) and 23.5 h before the test swim (Swim 2). […]
Behavioral scoring is conducted by observers who are blind to the treatment groups. Animals are continuously observed during Swim 2 and the total time spent engaging in the following behaviors is recorded: immobile, swimming, and climbing. […]

[4] = HEK293 stably transfected cells, Ca2+ flux

Chain of 5-HT2B receptor (P41595 whole entry, looked up): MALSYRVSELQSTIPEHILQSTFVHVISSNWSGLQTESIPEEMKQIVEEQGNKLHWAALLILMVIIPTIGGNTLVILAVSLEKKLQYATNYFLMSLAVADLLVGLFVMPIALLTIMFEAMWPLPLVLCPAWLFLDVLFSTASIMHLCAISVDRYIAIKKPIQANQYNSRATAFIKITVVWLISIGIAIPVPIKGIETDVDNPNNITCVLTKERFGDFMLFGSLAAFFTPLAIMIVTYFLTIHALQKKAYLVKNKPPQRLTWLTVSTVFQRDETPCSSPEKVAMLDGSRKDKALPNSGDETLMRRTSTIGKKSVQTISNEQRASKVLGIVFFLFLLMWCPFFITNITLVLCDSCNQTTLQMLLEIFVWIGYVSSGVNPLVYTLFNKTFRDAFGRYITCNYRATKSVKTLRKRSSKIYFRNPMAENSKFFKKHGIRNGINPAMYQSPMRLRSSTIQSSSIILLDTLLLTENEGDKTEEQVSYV

| SMILES | EC50 (5-HT2A receptor [1]) | agonist activity at the 5-HT2A receptor (in words) (5-HT2A receptor [1]; Ca2+ flux) | agonist type at the 5-HT2A receptor (in words) (5-HT2A receptor [1]; Ca2+ flux) | Emax (5-HT2A receptor [1]; [4]) | EC50 (5-HT2B receptor) | Emax (5-HT2B receptor) | EC50 (5-HT1A receptor) | Emax (5-HT1A receptor) | Ki (5-HT2A receptor [2]) | 5-HT releaser potency compared to 5-MeO-DMT (in words) (rat synaptosomes; rat synaptosomes) | EC50 (rat synaptosomes) | % Release @ Max Dose (10 μM) (rat synaptosomes; rat synaptosomes) | immobility time relative to vehicle control [3] | EC50 (5-HT2A receptor [1]; HEK293 stably transfected cells, Ca2+ flux, read-out: 5-HT2A EC50) |
| --- | --- | --- | --- | --- | --- | --- | --- | --- | --- | --- | --- | --- | --- | --- |
| CN(C)CCc1c[nH]c2ccc(OC(F)(F)F)cc12 [Compound 1, N,N-dimethyl-2-(5-(trifluoromethoxy)-1/-indol-3-yl)ethan-1-amine hydrochloride] | 127 nM | potent agonist activity | partial agonist rather than a full agonist | 78.9% | 762 nM | 19.6% | 6330 nM | 81.8% | 890 nM | much more potent releaser of 5-HT | 192 nM | 58.77% | reduces immobility time relative to vehicle control in a dose-dependent manner |  |
| COc1ccc2[nH]cc(CCN(C)C)c2c1 [Compound 5-MeO-DMT, 5-methoxy-N,N-dimethyltryptamine, reference compound] |  |  |  | 106% |  | 17.6% |  | 100% |  |  | 3950 nM | 54.63% |  |  |
| CN(C)CCc1c[nH]c2ccccc12 [DMT, N,N-dimethyltryptamine, reference compound] |  |  |  | 93.4% |  | 42.8% |  | 70.2% | 416 nM |  | 80.8 nM | 80.77% |  | 22.2 nM |

From patent publication US20240246911A1, “NOVEL T[…] METHODS OF TREATING MOOD DISORDERS” (GILGAMESH PHARMACEUTICALS INC., priority 2021, published 2024)
